Key:
Assay type in all cases: cell-based
Parameters in all cases: unit not given here
Citro = test: in vitro antibacterial activity, agar dilution (Citro)
Method: (§1) *minimum inhibitory concentrations were determined by the Agardilution

Streptococcus A = test: in vitro antibacterial activity, agar dilution (Streptococcus A)
Method: as §1

Staphylococcus Epi = test: in vitro antibacterial activity, agar dilution (Staphylococcus epi)
Method: as §1

E. coli = test: in vitro antibacterial activity, agar dilution (E. coli)
Method: as §1

Enterbacter Aerogenes = test: in vitro antibacterial activity, agar dilution (Enterobacter aerogenes)
Method: as §1

Proteus rett = test: in vitro antibacterial activity, agar dilution (Proteus rett)
Method: as §1

Proteus morg = test: in vitro antibacterial activity, agar dilution (Proteus morg)
Method: as §1

Enterbacter Cloacea = test: in vitro antibacterial activity, agar dilution (Enterobacter cloacae)
Method: as §1

Serratia = test: in vitro antibacterial activity, agar dilution (Serratia)
Method: as §1

Salmonella = test: in vitro antibacterial activity, agar dilution (Salmonella)
Method: as §1

Streptococcus pn = test: in vitro antibacterial activity, agar dilution (Streptococcus pn); conditions: strain PARK
Method: as §1

Acin = test: in vitro antibacterial activity, agar dilution (Acin)
Method: as §1

Staphylococcus Aureus = test: in vitro antibacterial activity, agar dilution (Staphylococcus aureus)
Method: as §1

Klebsiella = test: in vitro antibacterial activity, agar dilution (Klebsiella)
Method: as §1

Shig. sonn = test: in vitro antibacterial activity, agar dilution (Shig. sonn)
Method: as §1

Streptococcus D = test: in vitro antibacterial activity, agar dilution (Streptococcus D)
Method: as §1

H. Influ. = test: in vitro antibacterial activity, agar dilution (H. influ.)
Method: as §1

Proteus incon = test: in vitro antibacterial activity, agar dilution (Proteus incon)
Method: as §1

Pseudomonas = test: in vitro antibacterial activity, agar dilution (Pseudomonas)
Method: as §1

With `CO/N=C(\C(=O)N[C@@H]1C(=O)N2C(C(=O)O)=C(c3csc(-c4ccco4)n3)CC[C@H]12)c1csc(N)n1` [Example 32] the minimum inhibitory concentration (Citro; strain CF17) was “.5”, the minimum inhibitory concentration (Citro; strain CF17, retest) was 1 and the minimum inhibitory concentration (Streptococcus A; strain C203) was “.015”. The minimum inhibitory concentration (Streptococcus A; strain C203, retest) was “.015”, the minimum inhibitory concentration (Staphylococcus Epi; strain 222) was 4 and the minimum inhibitory concentration (Staphylococcus Epi; strain 222, retest) was 4. The minimum inhibitory concentration (Staphylococcus Epi; strain 270) was 16, the minimum inhibitory concentration (Staphylococcus Epi; strain 270, retest) was 8 and the minimum inhibitory concentration (E. coli; strain EC14) was 1. The minimum inhibitory concentration (E. coli; strain EC14, retest) was “.5”, the minimum inhibitory concentration (E. coli; strain N10) was 1 and the minimum inhibitory concentration (E. coli; strain N10, retest) was 1. The minimum inhibitory concentration (E. coli; strain TEM) was “< .008”, the minimum inhibitory concentration (E. coli; strain TEM, retest) was “.5” and the minimum inhibitory concentration (Enterbacter Aerogenes; strain C32) was 1. The minimum inhibitory concentration (Enterbacter Aerogenes; strain C32, retest) was “.5”, the minimum inhibitory concentration (Enterbacter Aerogenes; strain EB17) was 1 and the minimum inhibitory concentration (Enterbacter Aerogenes; strain EB17, retest) was 1. The minimum inhibitory concentration (Proteus rett; strain C24) was “.5”, the minimum inhibitory concentration (Proteus rett; strain C24, retest) was “.5” and the minimum inhibitory concentration (Proteus morg; strain PR15) was 2. The minimum inhibitory concentration (Proteus morg; strain PR15, retest) was 2, the minimum inhibitory concentration (Enterbacter Cloacea; strain 265A) was 128 and the minimum inhibitory concentration (Enterbacter Cloacea; strain 265A, retest) was 128. It also gave a minimum inhibitory concentration (Enterbacter Cloacea; strain EB5) of 2, a minimum inhibitory concentration (Enterbacter Cloacea; strain EB5, retest) of 2 and a minimum inhibitory concentration (Serratia; strain SE3) of 16. It also gave a minimum inhibitory concentration (Serratia; strain SE3, retest) of 16, a minimum inhibitory concentration (Serratia; strain X99) of 14 and a minimum inhibitory concentration (Serratia; strain X99, retest) of 2. It also gave a minimum inhibitory concentration (Salmonella; strain 1335) of 4, a minimum inhibitory concentration (Salmonella; strain 1335, retest) of 2 and a minimum inhibitory concentration (Salmonella; strain X514) of 1. The minimum inhibitory concentration (Salmonella; strain X514, retest) was 1, the minimum inhibitory concentration (Streptococcus pn) was “.03” and the minimum inhibitory concentration (Streptococcus pn; retest) was “.03”. It also gave a minimum inhibitory concentration (Acin; strain AC12) of 128, a minimum inhibitory concentration (Acin; strain AC12, retest) of 128 and a minimum inhibitory concentration (Staphylococcus Aureus; strain S13E) of 128. It also gave a minimum inhibitory concentration (Staphylococcus Aureus; strain S13E, retest) of 128, a minimum inhibitory concentration (Staphylococcus Aureus; strain V41) of 8 and a minimum inhibitory concentration (Staphylococcus Aureus; strain V41, retest) of 4. For the same compound, the minimum inhibitory concentration (Staphylococcus Aureus; strain X1.1) was 4, the minimum inhibitory concentration (Staphylococcus Aureus; strain X1.1, retest) was 2 and the minimum inhibitory concentration (Staphylococcus Aureus; strain X400) was over 128. The minimum inhibitory concentration (Staphylococcus Aureus; strain X400, retest) was over 128, the minimum inhibitory concentration (Klebsiella; strain KAE) was 1 and the minimum inhibitory concentration (Klebsiella; strain KAE, retest) was 16. For the same compound, the minimum inhibitory concentration (Klebsiella; strain X26) was 8, the minimum inhibitory concentration (Klebsiella; strain X26, retest) was “< .008” and the minimum inhibitory concentration (Klebsiella; strain X68) was 1. It also gave a minimum inhibitory concentration (Klebsiella; strain X68, retest) of 1, a minimum inhibitory concentration (Shig. sonn; strain N9) of 1 and a minimum inhibitory concentration (Shig. sonn; strain N9, retest) of 1. The minimum inhibitory concentration (Streptococcus D; strain 2041) was 16, the minimum inhibitory concentration (Streptococcus D; strain 2041, retest) was 16 and the minimum inhibitory concentration (Streptococcus D; strain X66) was over 128. The minimum inhibitory concentration (Streptococcus D; strain X66, retest) was over 128, the minimum inhibitory concentration (H. Influ.; res, strain 76) was “< .008” and the minimum inhibitory concentration (H. Influ.; res, strain 76, retest) was “.015”. For the same compound, the minimum inhibitory concentration (H. Influ.; sens, strain C.L.) was “.06”, the minimum inhibitory concentration (H. Influ.; sens, strain C.L., retest) was “.03” and the minimum inhibitory concentration (Proteus incon; strain PR33) was “.5”. For the same compound, the minimum inhibitory concentration (Proteus incon; strain PR33, retest) was “.25”, the minimum inhibitory concentration (Pseudomonas; strain PS18) was over 128 and the minimum inhibitory concentration (Pseudomonas; strain PS18, retest) was over 128. For the same compound, the minimum inhibitory concentration (Pseudomonas; strain PS72) was over 128, the minimum inhibitory concentration (Pseudomonas; strain PS72, retest) was over 128 and the minimum inhibitory concentration (Pseudomonas; strain X239) was over 128. The minimum inhibitory concentration (Pseudomonas; strain X239, retest) was over 128, the minimum inhibitory concentration (Pseudomonas; strain X528) was over 128 and the minimum inhibitory concentration (Pseudomonas; strain X528, retest) was over 128.

— patent publication US5179088A, “1-Carba(dethia)cephalosporin antibiotics” (Eli Lilly and Company, priority 1990, dated 1993)
